Reference: PubChem BioAssay (NCI)
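1) Cells in 96-well plates. 2) Compound, 48 h, 5 concentrations. 3) Linear interpolation between surrounding doses. 4) Unreached endpoint = highest concentration. GI50 = concentration required for 50% inhibition of growth. TGI is the concentration that stops growth completely.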

Legend:
Assay in all cases: NCI tumour cell line growth inhibition, 48 h
TK-10 renal = tested on: TK-10 renal
K-562 leukemia = tested on: K-562 leukemia
COLO 205 colon = tested on: COLO 205 colon
NCI-H226 lung = tested on: NCI-H226 lung
HS 578T breast = tested on: HS 578T breast
OVCAR-5 ovarian = tested on: OVCAR-5 ovarian
UACC-257 melanoma = tested on: UACC-257 melanoma
SF-539 CNS = tested on: SF-539 CNS
NCI-H23 lung = tested on: NCI-H23 lung
LOX IMVI melanoma = tested on: LOX IMVI melanoma
SF-295 CNS = tested on: SF-295 CNS
MDA-MB-435 = tested on: MDA-MB-435
SNB-19 CNS = tested on: SNB-19 CNS
NCI-H522 lung = tested on: NCI-H522 lung
SR leukemia = tested on: SR leukemia
A498 renal = tested on: A498 renal
SK-MEL-5 melanoma = tested on: SK-MEL-5 melanoma
HCT-15 colon = tested on: HCT-15 colon
OVCAR-3 ovarian = tested on: OVCAR-3 ovarian
UACC-62 melanoma = tested on: UACC-62 melanoma
HT29 colon = tested on: HT29 colon
SF-268 CNS = tested on: SF-268 CNS
MOLT-4 leukemia = tested on: MOLT-4 leukemia
U251 CNS = tested on: U251 CNS
HL-60(TB) leukemia = tested on: HL-60(TB) leukemia
MDA-MB-231 breast = tested on: MDA-MB-231 breast
SNB-75 CNS = tested on: SNB-75 CNS
OVCAR-4 ovarian = tested on: OVCAR-4 ovarian
T-47D breast = tested on: T-47D breast
HOP-92 NSCLC = tested on: HOP-92 NSCLC
786-0 renal = tested on: 786-0 renal
RXF 393 renal = tested on: RXF 393 renal
KM12 colon = tested on: KM12 colon
M14 melanoma = tested on: M14 melanoma
DU-145 prostate = tested on: DU-145 prostate
RPMI-8226 leukemia = tested on: RPMI-8226 leukemia
SK-MEL-28 melanoma = tested on: SK-MEL-28 melanoma
SK-MEL-2 melanoma = tested on: SK-MEL-2 melanoma
EKVX NSCLC = tested on: EKVX NSCLC
UO-31 renal = tested on: UO-31 renal
SK-OV-3 ovarian = tested on: SK-OV-3 ovarian
BT-549 breast = tested on: BT-549 breast
ACHN renal = tested on: ACHN renal
PC-3 prostate = tested on: PC-3 prostate
HOP-62 NSCLC = tested on: HOP-62 NSCLC
NCI-H460 lung = tested on: NCI-H460 lung
SN12C renal = tested on: SN12C renal
CAKI-1 renal = tested on: CAKI-1 renal
OVCAR-8 ovarian = tested on: OVCAR-8 ovarian
IGROV1 ovarian = tested on: IGROV1 ovarian
MCF7 breast = tested on: MCF7 breast
HCT-116 colon = tested on: HCT-116 colon
HCC-2998 colon = tested on: HCC-2998 colon
NCI/ADR-RES ovarian = tested on: NCI/ADR-RES ovarian
MALME-3M melanoma = tested on: MALME-3M melanoma
A549 NSCLC = tested on: A549 NSCLC
CCRF-CEM leukemia = tested on: CCRF-CEM leukemia

Work on `CS(=O)(=O)Nc1cccc(-c2ccc3ncnc(Nc4ccc(F)c(Cl)c4)c3c2)c1` yielded a GI50 (TK-10 renal) of 80.1 nM, a TGI (TK-10 renal) of 2260 nM and a GI50 (K-562 leukemia) of 1980 nM. The TGI (K-562 leukemia) was 5620 nM, the GI50 (COLO 205 colon) was 1600 nM and the TGI (COLO 205 colon) was 3350 nM. The GI50 (NCI-H226 lung) was 1800 nM, the TGI (NCI-H226 lung) was 5330 nM and the GI50 (HS 578T breast) was 1850 nM. It also gave a TGI (HS 578T breast) of 5550 nM, a GI50 (OVCAR-5 ovarian) of 1890 nM and a TGI (OVCAR-5 ovarian) of 6660 nM. The GI50 (UACC-257 melanoma) was 2050 nM, the TGI (UACC-257 melanoma) was 5070 nM and the GI50 (SF-539 CNS) was 1830 nM. The TGI (SF-539 CNS) was 4200 nM, the GI50 (NCI-H23 lung) was 2150 nM and the TGI (NCI-H23 lung) was 6570 nM. For the same molecule, the GI50 (LOX IMVI melanoma) was 1460 nM, the TGI (LOX IMVI melanoma) was 2890 nM and the GI50 (SF-295 CNS) was 1470 nM. The TGI (SF-295 CNS) was 3080 nM, the GI50 (MDA-MB-435) was 1910 nM and the TGI (MDA-MB-435) was 4750 nM. It also gave a GI50 (SNB-19 CNS) of 1550 nM, a TGI (SNB-19 CNS) of 4780 nM and a GI50 (NCI-H522 lung) of 1040 nM. The TGI (NCI-H522 lung) was 3130 nM, the GI50 (SR leukemia) was 1430 nM and the TGI (SR leukemia) was 5320 nM. It also gave a GI50 (A498 renal) of 118 nM, a TGI (A498 renal) of 2270 nM and a GI50 (SK-MEL-5 melanoma) of 1640 nM. It also gave a TGI (SK-MEL-5 melanoma) of 3190 nM, a GI50 (HCT-15 colon) of 1470 nM and a TGI (HCT-15 colon) of 3860 nM. The GI50 (OVCAR-3 ovarian) was 1600 nM, the TGI (OVCAR-3 ovarian) was 6270 nM and the GI50 (UACC-62 melanoma) was 1840 nM. For the same molecule, the TGI (UACC-62 melanoma) was 3830 nM, the GI50 (HT29 colon) was 1640 nM and the TGI (HT29 colon) was 3730 nM. For the same molecule, the GI50 (SF-268 CNS) was 1970 nM, the TGI (SF-268 CNS) was 9140 nM and the GI50 (MOLT-4 leukemia) was 1800 nM. The TGI (MOLT-4 leukemia) was 12400 nM, the GI50 (U251 CNS) was 1550 nM and the TGI (U251 CNS) was 3340 nM. It also gave a GI50 (HL-60(TB) leukemia) of 3530 nM, a TGI (HL-60(TB) leukemia) of 43300 nM and a GI50 (MDA-MB-231 breast) of 1400 nM. It also gave a TGI (MDA-MB-231 breast) of 3450 nM, a GI50 (SNB-75 CNS) of 4320 nM and a TGI (SNB-75 CNS) of over 30200 nM. It also gave a GI50 (OVCAR-4 ovarian) of 2420 nM, a TGI (OVCAR-4 ovarian) of over 30600 nM and a GI50 (T-47D breast) of 731 nM. For the same molecule, the TGI (T-47D breast) was 5170 nM, the GI50 (HOP-92 NSCLC) was 1720 nM and the TGI (HOP-92 NSCLC) was 5250 nM. It also gave a GI50 (786-0 renal) of 1710 nM, a TGI (786-0 renal) of 3760 nM and a GI50 (RXF 393 renal) of 1490 nM. It also gave a TGI (RXF 393 renal) of 4440 nM, a GI50 (KM12 colon) of 2500 nM and a TGI (KM12 colon) of 8300 nM. The GI50 (M14 melanoma) was 1760 nM, the TGI (M14 melanoma) was 3660 nM and the GI50 (DU-145 prostate) was 1290 nM. The TGI (DU-145 prostate) was 13800 nM, the GI50 (RPMI-8226 leukemia) was 2070 nM and the TGI (RPMI-8226 leukemia) was 7590 nM. For the same molecule, the GI50 (SK-MEL-28 melanoma) was 2280 nM, the TGI (SK-MEL-28 melanoma) was 7200 nM and the GI50 (SK-MEL-2 melanoma) was 1980 nM. The TGI (SK-MEL-2 melanoma) was 4150 nM, the GI50 (EKVX NSCLC) was 129 nM and the TGI (EKVX NSCLC) was 3720 nM. The GI50 (UO-31 renal) was 706 nM, the TGI (UO-31 renal) was 3100 nM and the GI50 (SK-OV-3 ovarian) was 233 nM. The TGI (SK-OV-3 ovarian) was 1380 nM, the GI50 (BT-549 breast) was 1810 nM and the TGI (BT-549 breast) was 4540 nM. The GI50 (ACHN renal) was 113 nM, the TGI (ACHN renal) was 6060 nM and the GI50 (PC-3 prostate) was 1940 nM. For the same molecule, the TGI (PC-3 prostate) was 5890 nM, the GI50 (HOP-62 NSCLC) was 1810 nM and the TGI (HOP-62 NSCLC) was 4200 nM. The GI50 (NCI-H460 lung) was 2150 nM, the TGI (NCI-H460 lung) was 5600 nM and the GI50 (SN12C renal) was 1930 nM. The TGI (SN12C renal) was 6590 nM, the GI50 (CAKI-1 renal) was 447 nM and the TGI (CAKI-1 renal) was 19200 nM. The GI50 (OVCAR-8 ovarian) was 2230 nM, the TGI (OVCAR-8 ovarian) was 8530 nM and the GI50 (IGROV1 ovarian) was 1090 nM. It also gave a TGI (IGROV1 ovarian) of 5410 nM, a GI50 (MCF7 breast) of 1560 nM and a TGI (MCF7 breast) of 6930 nM. The GI50 (HCT-116 colon) was 1590 nM, the TGI (HCT-116 colon) was 3290 nM and the GI50 (HCC-2998 colon) was 1940 nM. The TGI (HCC-2998 colon) was 3840 nM, the GI50 (NCI/ADR-RES ovarian) was 2030 nM and the TGI (NCI/ADR-RES ovarian) was 7540 nM. It also gave a GI50 (MALME-3M melanoma) of 1970 nM, a TGI (MALME-3M melanoma) of 5100 nM and a GI50 (A549 NSCLC) of 1580 nM. It also gave a TGI (A549 NSCLC) of 7490 nM, a GI50 (CCRF-CEM leukemia) of 3050 nM and a TGI (CCRF-CEM leukemia) of over 100000 nM.
